Test results from patent US8148371B2, “Adenine compound and use thereof” (Dainippon Sumitomo Pharma Co., Ltd., priority 2002, dated 2012).
Like-named read-outs stand apart in the source and are kept apart here. Marks after values point to notes of the source that are not given here.

Assays:
leucocytes in BALF = assay: Amount of leucocytes in bronchoalveolar lavage fluid (BALF) on an asthma modeled mouse; format: in vivo, C57BL/6 mouse; conditions: 10 mg/kg nasally, BALF 18 hours after ovalbumin challenge
Method: (§1) C57BL/6 mouse was immunized by dermally administering denatured ovalbumin by heating (40 mg). Fourteen days later after the first immunization, ovalbumin (100 μg) was nasally busted. Twenty one days later after the first immunization, the solution (1 ml/kg) prepared by suspending the test compound (10 mg/kg) in physiological saline was nasally administered (10 μl/10 g/body weight). After 2 hours ovalbumin (100 μg) was nasally challenged. After 18 hours, bronchoalveolar lavege fluid (BALF) was collected, and the total number of leucocytes in BALF and fractioned leukocyte in the cytospin sample were measured. By ELISA method, IL-4 and IL-5 in the supernatant were measured. The number of leucocytes (inhibition %) was shown in Table 5 and the production inhibition activity of IL-4 and IL-5 (inhibition % to control) was shown in Table 6.

IL-4 = IL-4 in BALF supernatant on an asthma modeled mouse (ELISA); format: in vivo, C57BL/6 mouse; conditions: 10 mg/kg nasally
Method: as §1

IL-5 = IL-5 in BALF supernatant on an asthma modeled mouse (ELISA); format: in vivo, C57BL/6 mouse; conditions: 10 mg/kg nasally
Method: as §1

[1] = Metabolic stability on liver S9 of rat; conditions: 37° C.
Method: The compound of the present invention is added to liver S9 solution, and the mixture is incubated at 37±0.5° C. for 5 minutes to 2 hours. By quantitatively analyzing at the definite interval the amount of the compound of the present invention remaining in the liver S9 solution with HPLC (high performance liquid chromatography), etc., the constant of quenching velocity is calculated and the half life is calculated.
The reaction on river S9 of a rat was carried out on a 96-well plate by using a robot for screening by Tecan Company. S9 solution was prepared by adding to 10 ml of liver S9 of a rat, 20 ml of 250 mM Kpi (pH 7.4) and 20 ml of deionized water. Cofactor solution was prepared by dissolving NADPH (220 mg) in deionized water (40.5 ml) to give finally a 6 mM solution. IS (Internal Standard) solution was prepared by adding 300 μL of IS solution (1 mM DMSO solution) to 30 ml of acetonitrile solution (100 times dilution). The test compound (1 μM DMSO solution) was dissolved in an incubator at 37° C., 35 μL of it was poured into each well of a 96-well plate (24 samples/plate and then, plates (a sample plate, a 96 well-plate for dilution, deep well plates for reaction and recovering, a plate for extraction of the solid phase) and the test samples (S9 solution, Cofactor solution, IS (Internal Standard) solution, Stop solution, acetonitrile for elution) were set to the specified position in the booth of the robot. The reaction started (the concentration of the test compound was 1 μM) and the mixture was incubated at 37° C. under stirring. The solid phase was extracted and at the same time the internal standard for analysis was added. To the recovered sample (200 μL/well) was added 50 μL of acetonitrile per each well and to 2 plates of FALCON Deep well were poured 100 μL of the solution per well. By subjecting to the LC/MS analysis, the chromatogram of the test sample and the internal standard were described and the peak area was calculated. And then, the stability (residual rate after reaction) was calculated by the internal standard method.

plasma esterase = conditions: rat plasma, 37° C., 15 minutes
Method: The compound of the present invention is added to the serum solution, and the mixture is incubated at 37±0.5° C. for 5 minutes to 2 hours. By quantitatively analyzing at the definite interval the amount of the compound of the present invention remaining in the serum solution with HPLC (high performance liquid chromatography), etc., the constant of quenching velocity calculated and the half life is calculated.
The serum herein means the supernatant fraction obtained by excluding hemocytes and blood coagulation factor from blood by centrifugation, etc. The serum diluted with buffer, etc. can be used.
The metabolic stability of the test compound was presented by the residual amount (%) per the concentration of pre-metabolization.

cells of rat spleen = assay: cells; format: cell-based, SD rat; conditions: 24 h, read-out: Minimum effective concentration (interferon inducing activity)
cells of mouse spleen = assay: cells; format: cell-based, C3H/HeJ mouse; conditions: for minimal effective concentration: Mus musculus, 24 h, read-out: Minimum effective concentration (interferon inducing activity)
[2] = test system: type 2 herpes virus (HSV-2); assay: Anti HSV activity in mouse infected with HSV-2 in its vagina; format: in vivo, BALB/c female mouse; conditions: 9 days after virus-infection
Method: Compound A was spread to a vagina of a female mouse (BALB/c) to which previously Depo-Provera was administered, and on next day, HSV-2 was infected to the vagina. Nine days later, the rate of survival or death of mice was observed and compared.
On the back of a BALB/c female mouse (6 weeks old: Nippon SLC) 3 mg of Depo-Provera/mouse (Registered Trade Mark) was dermally administered and the mice were fed for 6 days. By doing this the sexual cycle was tuned and the sensitivity between mice to herpes virus was balanced. The slime of mouse vagina was removed by a cotton swab for baby, and the ointment (20 mg) containing 0.5% of compound of Example 20 or the ointment (10 mg) containing 5% of compound of Example 20 was spread to the vagina (corresponding 0.1 mg and 0.5 mg per mouse of the compound of Example). As a control, the placebo ointment not containing the compound was spread as well. As the ointment, the base consisting of 80% Vaseline and 20% liquid paraffin were used. On the next day, the slime of mouse vagina was removed by a cotton swab for baby and then, 2×10^4 pfu type 2 herpes virus (HSV-2)(10 μl/mouse) was administered to the vagina by pipette. After infection the death or survival of the mice was observed.

[3] = rat liver S9, test compound 1 μM
[4] = rat liver S9, test compound 10 μM (*)

Row | Structure (SMILES) | Residual rate [1, 3] [%] | Residual rate (plasma esterase; test compound 10 μM) [%] | minimal effective concentration (cells of rat spleen) [µM] | minimal effective concentration (cells of mouse spleen) [µM] | other results
1 | CCC(=O)OCC(=O)[C@@]1(OC(=O)CC)[C@@H](C)C[C@H]2[C@@H]3CCC4=CC(=O)C=C[C@]4(C)[C@@]3(Cl)[C@@H](O)C[C@@]21C [Beclometasone dipropionate] | – | – | – | – | Acidophile (inhibition %) (leucocytes in BALF): 89%; Netrophile (inhibition %) (leucocytes in BALF): 90%; Number of total leukocyte (inhibition %) (leucocytes in BALF): 92%; IL-4 production inhibition activity (inhibition % to control) (IL-4): 97%; IL-5 production inhibition activity (inhibition % to control) (IL-5): 100%
2 | CCCCOc1nc(N)c2[nH]c(=O)n(Cc3cccc(C(=O)OC)c3)c2n1 [Example 1, 2-Butoxy-8-hydroxy-9-(3-methoxycarbonylbenzyl)adenine] | 7 | 32 | 0.0003 | < 0.001 | –
3 | CCCCOc1nc(N)c2nc(O)n(Cc3cccc(C(=O)OCCO)c3)c2n1 [Example 6, 2-Butoxy-8-hydroxy-9-{3-(2-hydroxyethoxycarbonyl)benzyl}adenine] | – | 14 | – | < 0.001 | –
4 | CCCCOc1nc(N)c2nc(O)n(Cc3cccc(C(=O)OCCN(C)C)c3)c2n1 [Example 7, 2-Butoxy-8-hydroxy-9-{3-(2-dimethylaminoethoxycarbonyl)benzyl}adenine] | – | 1 | – | < 0.001 | –
5 | CCCCOc1nc(N)c2nc(O)n(Cc3ccc(C(=O)OC)o3)c2n1 [Example 15, 2-Butoxy-8-hydroxy-9-(5-methoxycarbonylfurfuryl)adenine] | 11 | 0 | 0.001 | 0.003 | Acidophile (inhibition %) (leucocytes in BALF): 101%; Netrophile (inhibition %) (leucocytes in BALF): −92%; Number of total leukocyte (inhibition %) (leucocytes in BALF): 84%; IL-4 production inhibition activity (inhibition % to control) (IL-4): 80%; IL-5 production inhibition activity (inhibition % to control) (IL-5): 75%
6 | CCCCOc1nc(N)c2nc(O)n(Cc3ccc(C(=O)OC(C)C)o3)c2n1 [Example 16, 2-Butoxy-8-hydroxy-9-(5-isopropoxycarbonylfurfuryl)adenine] | 0 | 0 | – | 0.003 | –
7 | CCCCOc1nc(N)c2nc(O)n(Cc3cccc(CC(=O)OC)c3)c2n1 [Example 19, 2-Butoxy-8-hydroxy-9-(3-methoxycarbonylmethylbenzyl)adenine] | – | – | 0.0003 | < 0.001 | –
8 | CCCCOc1nc(N)c2nc(O)n(Cc3ccc(CC(=O)OC)cc3)c2n1 [Example 20, 2-Butoxy-8-hydroxy-9-(4-methoxycarbonylmethylbenzyl)adenine] | 0 | 0 | 0.0001 | 0.003 | survived rate ([2]; 5% ointment (0.5 mg per mouse) spread to vagina): 100%; survived rate comparing with a control group ([2]; ointments containing 0.5% and 5%): clearly higher survived rate
9 | CCCCOc1nc(N)c2nc(O)n(Cc3ccc(CC(=O)OC(C)C)cc3)c2n1 [Example 21, 2-Butoxy-8-hydroxy-9-(4-isopropoxycarbonylmethylbenzyl)adenine] | 26 | – | 0.001 | 0.003 | Residual rate (plasma esterase; test compound 1 μM (*)): 0* %
10 | CCCCOc1nc(N)c2nc(O)n(Cc3ccc(N4CCC(C(=O)OCC)CC4)nc3)c2n1 [Example 24, 2-Butoxy-8-hydroxy-9-{6-(4-ethoxycarbonyl-1-piperidyl)-3-pyridylmethyl}adenine] | – | 7 | 0.0003 | < 0.001 | –
11 | CCCCOc1nc(N)c2nc(O)n(Cc3ccc(N4CCCC(C(=O)OCC)C4)nc3)c2n1 (stereo not shown) [Example 25, 2-Butoxy-8-hydroxy-9-{6-(3-ethoxycarbonyl-1-piperidyl)-3-pyridylmethyl}adenine] | – | 16 | – | 0.003 | –
12 | COC(=O)Cc1nc(N)c2nc(O)n(Cc3ccccc3)c2n1 [Example 29, 9-Benzyl-8-hydroxy-2-methoxycarbonylmethyladenine] | – | 0 | 0.01 | 0.01 | –
13 | CCOC(=O)Cc1nc(N)c2nc(O)n(Cc3ccccc3)c2n1 [Example 30, 9-Benzyl-2-ethoxycarbonylmethyl-8-hydroxyadenine] | 4 | 0 | 0.01 | 0.01 | –
14 | COC(=O)CNc1nc(N)c2nc(O)n(Cc3ccc(C)nc3)c2n1 [Example 32, 8-Hydroxy-2-methoxycarbonylmethylamino-9-{(6-methyl-3-pyridyl)methyl}adenine] | – | 0 | – | 0.01 | –
15 | CC(=O)OCCNc1nc(N)c2nc(O)n(Cc3ccc(C)nc3)c2n1 [Example 33, 2-(2-Acetoxyethylamino)-8-hydroxy-9-{(6-methyl-3-pyridyl)methyl}adenine] | – | – | – | 0.1 | Residual rate [1, 4]: 2* %
16 | COC(=O)OCCNc1nc(N)c2nc(O)n(Cc3ccc(C)nc3)c2n1 [Example 34, 8-Hydroxy-2-(2-methoxycarbonyloxyethylamino)-9-{(6-methyl-3-pyridyl)methyl}adenine] | – | 11 | – | 0.1 | Residual rate [1, 4]: 1* %
17 | COC(=O)OCCOc1nc(N)c2nc(O)n(Cc3ccc(C)nc3)c2n1 [Example 38, 2-{2-(Methoxycarbonyloxy)ethoxy}-8-hydroxy-9-{(6-methyl-3-pyridyl)methyl}adenine] | – | 2 | – | 0.01 | –
18 | COC(=O)CSc1nc(N)c2nc(O)n(Cc3ccccc3)c2n1 [Example 40, 9-Benzyl-8-hydroxy-2-(methoxycarbonylmethyl)thioadenine] | – | 0 | 0.01 | 0.01 | –
19 | Nc1nc(SCC(=O)OCC(F)(F)F)nc2c1nc(O)n2Cc1ccccc1 [Example 48, 9-Benzyl-2-(2,2,2-trifluoroethoxycarbonylmetyl)thio-8-hydroxyadenine] | 0 | 0 | – | – | Minimum effective concentration (interferon inducing activity) (cells of mouse spleen): 0.3 µM
20 | CCNC(=O)CSc1nc(N)c2nc(O)n(Cc3ccccc3)c2n1 [Example 50, 9-Benzyl-2-(ethylcarbamoylmethyl)thio-8-hydroxyadenine] | 7 | – | – | 0.1 | –
21 | Nc1nc(SCC(=O)N2CCCCC2)nc2c1nc(O)n2Cc1ccccc1 [Example 51, 9-Benzyl-8-hydroxy-2-(1-piperidinocarbonylmethyl)thioadenine] | 0 | – | – | 0.1 | –
22 | CCOC(=O)C(C)Sc1nc(N)c2nc(O)n(Cc3ccccc3)c2n1 (stereo not shown) [Example 53, 9-Benzyl-8-hydroxy-2-(1-ethoxycarbonylethyl)thioadenine] | 2 | 0 | – | 0.1 | –
23 | COC(=O)CCSc1nc(N)c2nc(O)n(Cc3ccccc3)c2n1 [Example 54, 9-Benzyl-8-hydroxy-2-(2-methoxycarbonylethyl)thioadenine] | – | 0 | 0.01 | 0.1 | –
24 | CCOC(=O)CC(=O)CSc1nc(N)c2nc(O)n(Cc3ccccc3)c2n1 [Example 58, 9-Benzyl-2-(ethoxycarbonylmethylcarbonylmethyl)thio-8-hydroxyadenine] | – | 0 | – | 0.1 | –
25 | Nc1nc(SC2CCOC2=O)nc2c1nc(O)n2Cc1ccccc1 (stereo not shown) [Example 59, 9-Benzyl-2-(2-butyrolactino)thio-8-hydroxyadenine] | 7 | 0 | – | – | Minimum effective concentration (interferon inducing activity) (cells of mouse spleen): 0.1 µM
